The record followed here is patent US20240327429A1, “[1,3]Thiazolo[4,5-d]-pyrimidon-7-ones as inhibitors of NOX4” (Boehringer Ingelheim International GmbH, priority 2023, published 2024).

The target in one series is T1, NOX2 (Homo sapiens, UniProt P04839).
T1 construct: endogenous in cells; host or cells: freshly isolated human blood-derived granulocytes
T1 sequence (P04839 2-570 limits assumed): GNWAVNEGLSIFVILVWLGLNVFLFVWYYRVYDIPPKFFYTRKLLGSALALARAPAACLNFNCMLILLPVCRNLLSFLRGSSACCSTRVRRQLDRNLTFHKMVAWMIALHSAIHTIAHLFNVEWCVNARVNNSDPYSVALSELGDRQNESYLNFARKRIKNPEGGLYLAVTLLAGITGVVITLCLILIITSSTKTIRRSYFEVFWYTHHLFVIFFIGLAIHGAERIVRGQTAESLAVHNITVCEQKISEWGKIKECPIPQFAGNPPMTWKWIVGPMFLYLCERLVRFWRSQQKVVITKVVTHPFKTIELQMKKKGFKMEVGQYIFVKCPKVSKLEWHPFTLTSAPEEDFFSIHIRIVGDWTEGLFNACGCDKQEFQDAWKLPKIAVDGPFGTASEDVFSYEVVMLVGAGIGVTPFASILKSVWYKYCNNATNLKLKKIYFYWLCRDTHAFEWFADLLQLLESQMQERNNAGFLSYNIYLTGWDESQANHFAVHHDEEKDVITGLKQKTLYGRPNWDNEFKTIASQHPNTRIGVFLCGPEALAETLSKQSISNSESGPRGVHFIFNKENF
T1 sequence (P13498 2-195 partner limits assumed): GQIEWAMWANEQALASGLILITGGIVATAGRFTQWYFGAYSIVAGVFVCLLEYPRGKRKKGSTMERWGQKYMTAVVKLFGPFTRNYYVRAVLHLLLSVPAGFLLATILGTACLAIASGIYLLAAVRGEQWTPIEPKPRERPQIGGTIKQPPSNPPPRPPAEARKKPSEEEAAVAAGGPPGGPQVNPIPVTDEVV
Nature of the series: NOX2 inhibition assay (L-012), human blood-derived granulocytes. The note with it: fMLP/PMA stimulated. In kind it is cell-based. The protocol: Evaluation of the NOX4 inhibitors on NOX2 activity is assessed in human blood-derived granulocytes.
Afterwards, freshly isolated granulocytes are added to the wells containing the compounds in assay buffer and incubated for 1 h at 37° C. Next, a solution of Nformylmethionine-leucyl-phenylalanine (fMLP; 730 nM), phorbol myristate acetate (PMA, 100 nM) (stimuli of ROS production) and L-012 (200 μM, ROS indicator) is added to the wells and the cells are incubated for additional 30 mins at 37° C. Afterwards luminescence is measured in a SpectraMax M5 microplate reader.

For a further series, the system named is human hepatocytes. Nature of the series: Evaluation of hepatocyte clearance (metabolic stability). Format: in vitro ADME. The note with it: 1 μM test compound, 5% human serum, Table 3. The method, then:
The metabolic degradation of the test compound is assayed in a hepatocyte suspension. Hepatocytes (cryopreserved) are incubated in Dulbecco's modified eagle medium (supplemented with […] glucagon/500 mL, 2.5 mg insulin/500 mL and 3.75 mg/500 mL hydrocortisone) containing 5% human serum.
Following a 30 min preincubation in an incubator (37° C., 10% CO2) 5 μl of test compound solution (80 μM; from 2 mM in DMSO stock solution diluted 1:25 with medium) are added into 395 μl hepatocyte suspension (cell density in the range 0.25-5 Mio cells/mL, typically 1 Mio cells/mL; final concentration of test compound 1 μM, final DMSO concentration 0.05%).
The cells are incubated for six hours (incubator, orbital shaker) and samples (25 μl) are taken at 0, 0.5, 1, 2, 4 and 6 hours. Samples are transferred into acetonitrile and pelleted by centrifugation (5 min). The supernatant is transferred to a new 96-deepwell plate, evaporated under nitrogen and resuspended.
Decline of Parent Compound is Analyzed by HPLC-MS/MS.
CLint is Calculated as Follows:
CL_[…]=Dose/AUC=(C0/CD)/(AUD+clast/k)×1000/60. • C0: initial concentration in the incubation [μM], CD: cell density of vital cells [10^6 cells/mL], AUD: area under the data [μM×h], clast: concentration of last data point [μM], • k: slope of the regression line for parent decline [h-1].
The calculated in vitro hepatic intrinsic clearance can be scaled up to the intrinsic in vivo hepatic clearance and used to predict hepatic in vivo blood clearance (CL) by the use of a liver model (well stirred model).
CL_[…]_INVIVO[ml/min/kg]=(CL_[…][μL/min/10^6 cells]×hepatocellularity[10^6 cells/g liver]×liver factor[g/kg bodyweight])/1000
CL[ml/min/kg]=CL_[…]_INVIVO[ml/min/kg]×hepatic blood flow[ml/min/kg]/(CL_[…]_INVIVO[ml/min/kg]+hepatic blood flow[ml/min/kg])

Another series concerns the target T2, human NOX4 (hNOX4) (Homo sapiens, UniProt Q9NPH5).
T2 sequence (Q9NPH5 1-578): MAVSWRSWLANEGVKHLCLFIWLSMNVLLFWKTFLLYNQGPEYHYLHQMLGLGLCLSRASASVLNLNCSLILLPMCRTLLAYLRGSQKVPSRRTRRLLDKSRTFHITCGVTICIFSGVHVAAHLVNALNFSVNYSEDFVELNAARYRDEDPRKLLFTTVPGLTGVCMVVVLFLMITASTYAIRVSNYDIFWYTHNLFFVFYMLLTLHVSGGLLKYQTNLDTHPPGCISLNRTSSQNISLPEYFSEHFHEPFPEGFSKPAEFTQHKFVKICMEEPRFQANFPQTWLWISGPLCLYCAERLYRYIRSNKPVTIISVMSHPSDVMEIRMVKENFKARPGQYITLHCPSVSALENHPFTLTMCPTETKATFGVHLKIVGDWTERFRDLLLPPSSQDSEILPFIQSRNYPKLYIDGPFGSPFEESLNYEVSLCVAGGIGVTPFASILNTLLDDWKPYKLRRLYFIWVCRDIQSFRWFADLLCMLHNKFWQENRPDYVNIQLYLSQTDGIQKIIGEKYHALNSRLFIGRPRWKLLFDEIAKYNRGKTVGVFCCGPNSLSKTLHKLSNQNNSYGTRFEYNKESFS
T2 sequence (P13498 2-195 partner limits assumed): T1 sequence (P13498 2-195 partner limits assumed)
Nature of the series: cell-based.

pIC50: −log10 of the molar value.

Experimental for human NOX4 (hNOX4): The synthetic gene phNOX4_DNA3_1_Zeo (Accession: AAF68973) is assembled from synthetic oligonucleotides and/or PCR products. The fragment is cloned into pcDNA3.1_Zeo_A011 using NheI and XhoI cloning sites. The plasmid DNA is purified from transformed bacteria and its concentration is determined by UV spectroscopy. The final construct is verified by sequencing. The plasmid is transfected via electroporation (Amaxa electroporation device) in combination with Nucleofector Kit V. Selection of NOX4 overexpressing genes is achieved using selection antibiotic Zeocin.
The inhibitory activity of the example compounds of the invention is determined using the following procedure:
Cells are cultured in the Dulbecco's Modified Eagle Medium (DMEM) media containing 4.5 g/L glucose supplemented with 10% fetal calf serum and 250 μg/ml Zeocin in an incubator at 37° C. with 5% CO2. For the assay, cells are seeded in 384 well plates.
After incubation Lumigen HyPerBlu™ is added and cells are incubated for additional 30 min at 24° C. in a humidified incubator. Next, luminescence is measured using an Envision Multimode Plate reader to determine levels of produced H2O2 in the wells.

Usually pIC50 stands for the IC50 on a negative log10 scale, so that one unit is a factor of ten. Take `O=c1c2scnc2nc(SCc2c(F)cc(F)cc2F)n1-c1ncc(O)cn1` [Example 21, 6-(5-Hydroxypyrimidin-2-yl)-5-((2,4,6-trifluorobenzyl)thio)thiazolo[4,5-d]pyrimidin-7(6H)-one]: the figures for the pIC50 at NOX2 and against human NOX4 (hNOX4) were < 4.00 and 6.76, respectively. Besides, the “Qh [%]” value in the series with human hepatocytes was 27%.

For `O=c1c2scnc2nc(SCc2ccc(F)cc2)n1-c1ccc(O)nc1` [Example 30], the figures for the pIC50 on NOX2 and at human NOX4 (hNOX4) were < 4.52 and 6.27, respectively. For the same molecule, in the series on human hepatocytes, the “Qh [%]” value is 22%.

Turning to `O=c1c2scnc2nc(SCc2ccc(Cl)cc2)n1-c1cnc(O)nc1` [Example 56], the values for the pIC50 against NOX2 and at human NOX4 (hNOX4) were < 4.00 and 6.82, respectively. For the same molecule, the “Qh [%]” value with human hepatocytes is recorded as <4%.

For the molecule `O=c1c2scnc2nc(SCc2ccc(Cl)cc2)n1-c1ccc(O)nn1` [Example 64], the pIC50 against NOX2 was < 4.00; against human NOX4 (hNOX4), 6.88. The “Qh [%]” value in the series with human hepatocytes was found to be 47%.

For `O=c1c2scnc2nc(SCc2ccc(C(F)(F)F)cc2)n1-c1cnc(O)nc1` [Example 60], the pIC50 against NOX2 was < 4.00; against human NOX4 (hNOX4) it was 6.63. The “Qh [%]” value with human hepatocytes is 8%.

For `O=c1c2scnc2nc(SCc2c(F)cc(F)cc2F)n1-c1ccc(O)nc1` [Example 28], the pIC50 is < 4.52 against NOX2 and 6.87 at human NOX4 (hNOX4). The “Qh [%]” value in the series with human hepatocytes is given as 29%.

Take `O=c1c2scnc2nc(SCc2c(F)cc(F)cc2F)n1-c1cnc(O)nc1` [Example 59]: the pIC50 was < 4.00 against NOX2 and 6.69 on human NOX4 (hNOX4). In addition, in the series on human hepatocytes, the “Qh [%]” value was <4%.

Turning to `O=c1c2scnc2nc(SCc2c(F)cc(F)cc2F)n1-c1cc(F)c(O)nc1F` [Example 51, 6-(2,5-Difluoro-6-hydroxypyridin-3-yl)-5-((2,4,6-trifluorobenzyl)thio)thiazolo[4,5-d]-pyrimidin-7(6H)-one], the pIC50 against NOX2 was < 4.00; against human NOX4 (hNOX4), 7.29. The “Qh [%]” value in the series with human hepatocytes came out at 10%.

Take `O=c1c2scnc2nc(SCc2ccc(Cl)cc2)n1-c1ccc(O)nc1` [Example 25]: the negative-log IC50 (pIC50) is < 4.00 on NOX2 and 7.00 on human NOX4 (hNOX4). For the same molecule, in the series on human hepatocytes, the “Qh [%]” value is 41%.

Consider `O=c1c2scnc2nc(SCc2c(F)cc(F)cc2F)n1-c1ccc(O)cc1` [Example 15], for which the pIC50 on NOX2 is 4.99; against human NOX4 (hNOX4) it was 7.48. Further, the “Qh [%]” value in the series with human hepatocytes was 61%.

Regarding `O=c1c2scnc2nc(SCc2ccc(C(F)(F)F)cc2F)n1-c1cnc(O)nc1` [Example 57], the figures for the pIC50 at NOX2 and against human NOX4 (hNOX4) were < 4.00 and 6.91, respectively. Moreover, the “Qh [%]” value in the series on human hepatocytes was 7%.

For the molecule `O=c1c2scnc2nc(SCc2ccc(C(F)(F)F)cc2F)n1-c1cnc(O)c(F)c1` [Example 42], the pIC50 on NOX2 was < 4.00; on human NOX4 (hNOX4), 7.21. Also, the “Qh [%]” value in the series with human hepatocytes was determined as 14%.

On to `O=c1c2scnc2nc(SCc2c(F)cc(F)cc2F)n1-c1cnc(O)c(F)c1F` [Example 52, 6-(4,5-Difluoro-6-hydroxypyridin-3-yl)-5-((2,4,6-trifluorobenzyl)thio)thiazolo[4,5-d]-pyrimidin-7(6H)-one], for which the figures for the pIC50 against NOX2 and against human NOX4 (hNOX4) were < 4.00 and 7.28, respectively. In the series with human hepatocytes, the “Qh [%]” value was 20%.

In the case of `N#Cc1cc(-n2c(SCc3c(F)cc(F)cc3F)nc3ncsc3c2=O)ccc1O` [Example 18], the pIC50 was < 4.52 against NOX2 and 6.93 against human NOX4 (hNOX4). For the same molecule, in the series with human hepatocytes, the “Qh [%]” value stood at 48%.

Turning to `N#Cc1cc(-n2c(SCc3c(F)cc(F)cc3F)nc3ncsc3c2=O)cnc1O` [Example 47, 2-Hydroxy-5-(7-oxo-5-((2,4,6-trifluorobenzyl)thio)thiazolo[4,5-d]pyrimidin-6(7H)-yl)-nicotinonitrile], the pIC50 against NOX2 was < 4.52; at human NOX4 (hNOX4), 6.37. Besides, the “Qh [%]” value with human hepatocytes is given as 15%.

For the molecule `O=c1c2scnc2nc(SCc2c(F)cc(F)cc2Cl)n1-c1cnc(O)c(F)c1` [Example 41], the pIC50 against NOX2 is 4.41; on human NOX4 (hNOX4) it was 7.22. In addition, the “Qh [%]” value in the series with human hepatocytes came out at 26%.
